These results are taken from article PMC2818863 (Bioorganic & medicinal chemistry, 2009).

Type in all cases: biochemical
Test [1] has as its target PLAP (Homo sapiens, UniProt P05187). Description: PLAP luminescent assay. The note with it: for IC50: PLAP potency (IC50), mean ± SD of three experiments, CDP-star 85 μM.
The target of test [2] is T1, IAP (Homo sapiens, UniProt P09923).
T1 sequence (P09923 20-503 limits assumed): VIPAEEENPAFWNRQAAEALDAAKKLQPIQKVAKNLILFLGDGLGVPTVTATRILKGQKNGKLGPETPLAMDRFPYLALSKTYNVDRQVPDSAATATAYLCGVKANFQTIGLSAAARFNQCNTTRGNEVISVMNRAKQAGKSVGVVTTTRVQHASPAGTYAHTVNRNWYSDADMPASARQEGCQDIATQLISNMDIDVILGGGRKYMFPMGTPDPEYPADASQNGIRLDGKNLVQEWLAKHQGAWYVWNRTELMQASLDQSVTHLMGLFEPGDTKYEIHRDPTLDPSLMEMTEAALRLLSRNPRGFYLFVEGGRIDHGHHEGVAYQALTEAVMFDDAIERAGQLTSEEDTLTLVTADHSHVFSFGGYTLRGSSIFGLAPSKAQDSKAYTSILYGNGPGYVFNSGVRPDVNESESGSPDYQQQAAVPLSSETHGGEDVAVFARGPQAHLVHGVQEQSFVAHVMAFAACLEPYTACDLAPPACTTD
Description: IAP luminescent assay. The following applies: ratio IC50 IAP / IC50 PLAP.

For test [3], the target named is GCAP (Homo sapiens, UniProt P10696). The experiment in a line: GCAP luminescent assay. The following applies: ratio IC50 GCAP / IC50 PLAP; for 12, 13, 20 from the separate-occasion values.
GCAP, sequence (P10696 20-503 limits assumed): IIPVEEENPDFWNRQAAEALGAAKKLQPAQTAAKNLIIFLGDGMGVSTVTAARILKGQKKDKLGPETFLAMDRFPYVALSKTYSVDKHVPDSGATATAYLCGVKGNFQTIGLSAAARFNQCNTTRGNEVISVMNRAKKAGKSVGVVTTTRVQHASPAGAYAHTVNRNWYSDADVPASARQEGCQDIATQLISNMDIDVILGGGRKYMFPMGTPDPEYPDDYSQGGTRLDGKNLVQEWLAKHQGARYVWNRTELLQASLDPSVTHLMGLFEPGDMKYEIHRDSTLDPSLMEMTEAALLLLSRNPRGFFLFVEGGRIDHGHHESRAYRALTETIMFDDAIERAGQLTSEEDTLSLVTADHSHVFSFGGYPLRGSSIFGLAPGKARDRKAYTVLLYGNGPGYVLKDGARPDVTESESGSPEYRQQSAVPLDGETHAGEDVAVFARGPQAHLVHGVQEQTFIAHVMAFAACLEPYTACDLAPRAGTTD
The target of test [4] is T2, TNAP (Homo sapiens, UniProt P05186).
T2 sequence (P05186 18-502 limits assumed): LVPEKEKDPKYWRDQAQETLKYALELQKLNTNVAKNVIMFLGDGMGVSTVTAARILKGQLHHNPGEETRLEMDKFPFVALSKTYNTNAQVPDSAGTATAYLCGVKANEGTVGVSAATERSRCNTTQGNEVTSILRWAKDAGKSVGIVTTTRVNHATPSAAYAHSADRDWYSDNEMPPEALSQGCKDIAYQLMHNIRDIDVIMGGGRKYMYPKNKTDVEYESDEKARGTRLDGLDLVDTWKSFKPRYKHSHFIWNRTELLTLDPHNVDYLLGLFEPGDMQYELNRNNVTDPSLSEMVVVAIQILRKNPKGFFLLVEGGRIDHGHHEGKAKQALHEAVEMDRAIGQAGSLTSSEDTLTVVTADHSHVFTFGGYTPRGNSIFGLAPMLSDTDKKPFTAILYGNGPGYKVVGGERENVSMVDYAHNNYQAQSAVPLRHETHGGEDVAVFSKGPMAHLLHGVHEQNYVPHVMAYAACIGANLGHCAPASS
Description: TNAP luminescent assay. The note with it: ratio IC50 TNAP / IC50 PLAP.

PLAP, sequence (P05187 23-506 limits assumed): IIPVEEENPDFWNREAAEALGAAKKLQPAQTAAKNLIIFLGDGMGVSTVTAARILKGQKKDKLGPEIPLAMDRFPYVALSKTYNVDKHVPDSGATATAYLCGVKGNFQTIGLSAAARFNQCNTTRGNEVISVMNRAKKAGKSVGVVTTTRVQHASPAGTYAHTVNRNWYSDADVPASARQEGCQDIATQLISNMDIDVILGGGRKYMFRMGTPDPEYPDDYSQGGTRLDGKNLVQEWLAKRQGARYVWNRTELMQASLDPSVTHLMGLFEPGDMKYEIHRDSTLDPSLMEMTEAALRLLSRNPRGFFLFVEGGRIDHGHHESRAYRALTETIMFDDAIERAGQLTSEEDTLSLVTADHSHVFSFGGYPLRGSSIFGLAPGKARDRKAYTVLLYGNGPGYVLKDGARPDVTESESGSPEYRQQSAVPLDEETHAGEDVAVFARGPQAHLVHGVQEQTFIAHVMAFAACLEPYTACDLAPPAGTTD

On to `Cc1cc(C)nc(SCC(=O)c2ccc(O)cc2)n1` [Compound 3], for which, in test [1], the IC50 is above 100 µM and the “PLAP inhibitory potency at 100 μM” value is given as “no PLAP inhibitory potency”.
In the same order, the values of `Cc1cc(C)nc(SCC(=O)c2cccc(O)c2)n1` [Compound 4] are above 100 µM and “no PLAP inhibitory potency”.
In the same order, the values of `COc1cc(C(=O)CSc2nc(C)cc(C)n2)ccc1O` [Compound 5] are above 100 µM and “no PLAP inhibitory potency”.
Consider `Cc1cc(C)nc(SCC(=O)c2ccc3c(c2)OCO3)n1` [Compound 6], for which, in test [1], the IC50 is above 100 µM and the “PLAP inhibitory potency at 100 μM” value was “no PLAP inhibitory potency”.
The corresponding values for `COc1ccc(C(=O)CSc2nc(C)cc(C)n2)cc1` [Compound 7] are above 100 µM and “no PLAP inhibitory potency”.
In the case of `O=C(Cn1ccnc1)c1ccc(O)c(O)c1` [Compound 8], the IC50 in test [1] was around 3 µM.
With `Cc1cnn(CC(=O)c2ccc(O)c(O)c2)c1` [Compound 10], the “Selectivity (IAP/PLAP)” value in test [2] is listed as above 25 fold. In test [1], this molecule gave an IC50 of 2.7 ± 0.1 µM.
With `Cc1nccn1CC(=O)c1ccc(O)c(O)c1` [Compound 12], in test [1], the IC50 stood at 3.3 ± 0.2 µM.
On to `CCc1nccn1CC(=O)c1ccc(O)c(O)c1` [Compound 13], for which, in test [3], the “Selectivity (GCAP/PLAP)” value is reported as “^* (2.1)”. In addition, in test [1], the IC50 is around 3 µM.
Turning to `Cc1cc2ncn(CC(=O)c3ccc(O)c(O)c3)c2cc1C` [Compound 18], the “Selectivity (TNAP/PLAP)” value in test [4] is above 17 fold.
As to `Cc1nc(Br)cn1CC(=O)c1ccc(O)c(O)c1` [Compound 19], in test [1] (19 relative to 16), the “increase in PLAP inhibitory potency” value was found to be 3 fold. Further, 4.9 ± 0.6 µM corresponded to half-maximal inhibition in test [1] (IC50).
In test [1], `Cc1cc(C(=O)NCc2ccc(O)c(O)c2)oc1C` [Compound 25] yielded an IC50 above 100 µM.
On the same count and under the same terms, the same measure for `Cc1cc(C(=O)NCCc2ccc(O)c(O)c2)oc1C` [Compound 26]: above 100 µM; for `O=C(CSc1nnc(-c2ccccc2)[nH]1)c1ccc(O)c(O)c1` [Compound 28]: above 100 µM.
Same read-out and setting: for `Cn1c(SCC(=O)c2ccccc2)nnc1-c1cccc(N)c1` [Compound 29] the value was above 100 µM; for `COc1ccc(-n2nnnc2SCC(=O)c2ccc(O)c(O)c2)cc1` [Compound 32], 2 ± 0.1 µM.

As a reminder, the IC50 is the concentration needed to halve the response being measured. A high value points to weaker potency.
